Assay results from patent publication US20160143929A1, “ADMINISTRATION OF GL[…] THE TREATMENT OF CANCER” (Threshold Pharmaceuticals, Inc., priority 2008, published 2016).

Columns and labels:
solid tumors = experiment: Phase I study: tumor response by RECIST; assay type: in vivo, human
Procedure: (§1) A medical history was obtained from each patient, and physical examinations and routine laboratory evaluations were performed before treatment initiation and weekly thereafter, Chest and other relevant x-rays were obtained during screening and after alternate cycles of treatment. Adverse events were monitored and recorded throughout the study and were graded according to NCI-CTC, version 3.0. The tumor response was assessed for measurable target lesions according to Response Evaluation Criteria in Solid Tumors (RECIST).
(§2) Antiemetic premedication was not mandatory in the protocol.

[1] = Caucasian patients, intravenous infusion; cited from earlier work
[2] = Phase I dose-escalation study: safety, DLT, MTD and RD; assay type: in vivo, human
Procedure: as §1, §2
The starting dose of Glufosfamide was 3200, which was increased to 4500 and then to 6000 in subsequent cohorts of at least three patients. The following adverse events during cycle 1 were defined as DLTs (dose-limiting toxicities): neutropenia of grade 4 (ANC of <500/uL) for >7 days; febrile neutropenia (fever of >38 degrees C. with an ANC of <1000/uL); thrombocytopenia (platelet count of <25,000/uL); nausea or vomiting of grade > (or equal to) 3 despite maximal antiemetic therapy; and any other nonhematologic toxicity of grade > (or equal to) 3 considered drug-related. If any patient experienced a DLT during the first cycle, three additional patients were treated at the same dose. Patients who experienced a DLT could continue Glufosfamide therapy at the preceding dose level. Treatment in subsequent courses was reinitiated only after hematologic recovery (ANC of > (or equal to) 1500/uL, platelet count of > (or equal to) 100,000/uL) and resolution of all other toxicities to grade < (or equal to) 1 or baseline intensity. The MTD (maximum tolerated dose) was defined as the dose at which two or more patients experienced a DLT in the first cycle. The RD (recommended dose) was defined as the dose level immediately below the MTD. In accordance with the methods of the invention, both the RD and MTD (and intermediate doses) can be administered to patients, with the RD preferred for Japanese and other patients of Asian origin and the MID preferred for other patients.

[3] = Phase I study: pharmacokinetics of Glufosfamide by 6 h intravenous infusion; conditions: over the dose range studied, 3200-6000 mg/m^2
Text: Patients were ineligible if they had symptomatic brain metastasis; other nonmalignant systemic disease; an active, uncontrolled infection; preexisting nephrotoxicity of grade 3 or 4 (NCI Common Toxicity Criteria—NCI-CTC) resulting from previous therapy; or infection with HIV, HBV, or HCV. They were also ineligible if they were pregnant or nursing, or if they required steroid therapy.
This open-label, dose-escalation Phase I study was based on intravenous infusion of the drug in three cohorts of Japanese subjects with malignant solid tumors. Glufosfamide was administered intravenously over 6 h in a total volume of 1000 mL of normal saline at doses of 3200, 4500, and 6000 mg/m^2. One-quarter of the dose was administered during the first 30 min at a rate of 500 mL/h, with the remainder of the dose being administered over the subsequent 330 min at a rate of 136 mL/h. Glufosfamide was administered on day 1 once every 3 weeks. Antiemetic premedication was not mandatory in the protocol. Granulocyte colony-stimulating factor (G-CSF) was administered for febrile neutropenia, sepsis with neutropenia, or recurrent neutropenia of grade 4.
Pharmacokinetic sampling was performed for the first and second cycles.

pancreatic cancer = pancreatic cancer patients relapsed after or not responding to gemcitabine; cited from earlier work

## O=P(NCCCl)(NCCCl)O[C@@H]1O[C@H](CO)[C@@H](O)[C@H](O)[C@H]1O [Glufosfamide, beta-D-glucosyl-isophosphoramide mustard]
Solid tumors; among thirteen evaluable patients, advanced gall bladder cancer, 4500 mg/m^2, after two cycles
  partial response: one partial response
Solid tumors; among thirteen evaluable patients, colorectal (4), gastric, thymic cancer, thymoma, non-small cell lung cancer
  subjects showing stabilization of disease: eight subjects
Solid tumors; among thirteen patients evaluable for response
  patients with evidence of antitumor activity: nine patients
Solid tumors; person, advanced gall bladder cancer, 4500 mg/m^2, two cycles
  duration of partial response: greater than five months
[1]
  dose that is well tolerated: 6000 mg/m^2
[2]; 4500 mg/m^2, cycle 2, without infection, short-lived, 13 patients
  patients with neutropenia of grade 4: only one patient
[2]; 4500 mg/m^2, cycle 3
  patients with grade 4 anemia requiring red blood cell transfusion: one patient
[2]; 6000 mg/m^2, cycle 1, grade 3 metabolic acidosis, hypophosphatemia, hypokalemia
  patients with DLTs: two of three treated patients experienced DLTs
[2]; Japanese patients, 6 h iv infusion day 1 every 3 weeks, dose at which two or more patients had a DLT in cycle 1
  MTD (maximum tolerated dose): 6000 mg/m^2
[2]; Japanese patients, 6 h iv infusion every 3 weeks, dose level immediately below MTD
  RD (recommended dose): 4500 mg/m^2
[2]; all dose levels, generally transient and reversible
  predominant nonhematologic toxicities: fatigue, nausea, a high urinary concentration of beta 2 microglobulin, hypophosphatemia, hypokalemia, and metabolic acidosis
[2]; two lowest doses (3200 and 4500 mg/m^2), cycle 1
  DLTs: No DLTs occurred
[3]
  dose linearity of pharmacokinetics: linear pharmacokinetics
Pancreatic cancer
  Phase III trial outcome: did not meet its endpoints
  anticancer activity in Phase III trial: did exhibit anticancer activity in some patients

## O=P(O)(NCCCl)NCCCl [IPM, isophosphoramide mustard]
[3]
  dose linearity of pharmacokinetics: linear pharmacokinetics
